Results from ChEMBL document CHEMBL3045614, “Antifeedant activity of vicolides from Pentanema indicum” (1999).

Experiments:
Format in all cases: functional
Euproctis fraterna [1] = test: Antifeedant activity against moulted fifth larval stage of Euproctis fraterna infested castor leaves assessed as feeding deterrence index at 2 ppm by leaf disk assay relative to control
Olepa ricini [2] = test: Antifeedant activity against moulted fifth larval stage of Olepa ricini infested on castor leaves assessed as feeding deterrence index at 2 ppm by leaf disk assay relative to control
Euproctis fraterna [3] = test: Antifeedant activity against moulted fifth larval stage of Euproctis fraterna infested castor leaves assessed as feeding deterrence index at 200 ppm by leaf disk assay relative to control
Euproctis fraterna [4] = test: Antifeedant activity against moulted fifth larval stage of Euproctis fraterna infested castor leaves assessed as feeding deterrence index at 2000 ppm by leaf disk assay relative to control
Olepa ricini [5] = test: Antifeedant activity against moulted fifth larval stage of Olepa ricini infested on castor leaves assessed as feeding deterrence index at 2000 ppm by leaf disk assay relative to control
Olepa ricini [6] = test: Antifeedant activity against moulted fifth larval stage of Olepa ricini infested on castor leaves assessed as feeding deterrence index at 20 ppm by leaf disk assay relative to control
Olepa ricini [7] = test: Antifeedant activity against moulted fifth larval stage of Olepa ricini infested on castor leaves assessed as feeding deterrence index at 200 ppm by leaf disk assay relative to control
Olepa ricini [8] = test: Antifeedant activity against moulted fifth larval stage of Olepa ricini infested on castor leaves assessed as feeding deterrence index at 0.2 ppm by leaf disk assay relative to control
Euproctis fraterna [9] = test: Antifeedant activity against moulted fifth larval stage of Euproctis fraterna infested castor leaves assessed as feeding deterrence index at 0.2 ppm by leaf disk assay relative to control
Euproctis fraterna [10] = test: Antifeedant activity against moulted fifth larval stage of Euproctis fraterna infested castor leaves assessed as feeding deterrence index at 20 ppm by leaf disk assay relative to control

SMILES	FDI (Euproctis fraterna [1]) [%]	FDI (Olepa ricini [2]) [%]	FDI (Euproctis fraterna [3]) [%]	FDI (Euproctis fraterna [4]) [%]	FDI (Olepa ricini [5]) [%]	FDI (Olepa ricini [6]) [%]	FDI (Olepa ricini [7]) [%]	FDI (Olepa ricini [8]) [%]	FDI (Euproctis fraterna [9]) [%]	FDI (Euproctis fraterna [10]) [%]
C=C1C(=O)O[C@@H]2C/C(C)=C\C(=O)C[C@@H](C)[C@@H](OC(=O)/C(C)=C\C)[C@H](O)[C@@H]12 [VICOLIDE B]	13.98	21.06	22.54	57.03	48.68	24.36	40.93	12.83	12.17	20.28
C=C1C(=O)O[C@H]2[C@H]1[C@@H](OC(=O)[C@@H](C)CC)[C@H](OC(C)=O)[C@H](C)C[C@@H](O)[C@H]1O[C@@]1(C)[C@@H]2O [VICOLIDE C]	18.6	9.61	26.76	26.56	38.26	17.74	30.59	4.44	13.98	22.37
C=C1C(=O)O[C@@H]2C/C(C)=C\C(=O)C[C@@H](C)[C@@H](OC(=O)[C@]3(C)O[C@@H]3C)[C@H](O)[C@@H]12 [VICOLIDE D]	14.44	17.74	20.46	35.68	46.88	27.62	40.93	10.61	10.99	15.37
C=C1C(=O)O[C@H]2[C@H]1[C@@H](O)[C@H](OC(=O)/C(C)=C\C)[C@H](C)[C@@H]1C(=O)C=C(C)[C@H]21 [VICOLIDE A]	8.99	13.35	15.33	15.06	42.86	22.28	29.66	6.17	8.43	15.33
